According to PMC3334918, “Mutagenesis and Functional Studies with Succinate Dehydrogenase Inhibitors in the Wheat Pathogen Mycosphaerella graminicola” (PLoS ONE, 2012):
“And” between values parts separate entries of the source, which are not always exact repeats. Identical values can stand only once.

Columns and labels:
Experiment in all cases: in vivo sensitivity, liquid culture growth (AE media)
Type in all cases: cell-based, Mycosphaerella graminicola
[1] = tested on: M. graminicola strain Bos59 (SDHB_H267Q); conditions: B_H267Q, ratio IC50mutant/IC50WT
Protocol: (§1) To explore the sensitivity profiles conferred by amino acid substitutions at the cellular and mitochondrial level, we determined sensitivity towards 4 different compounds for 26 of the identified substitution types both in vivo using liquid culture growth (AE media) and in vitro using purified mitochondria and the succinate: Q0/DCPIP activity test (Table 3). […] Resistance factors (RF) were determined as the ratio IC50mutant/IC50WT. […] Qp site mutations are well known to influence SDH enzyme activity and stability upon catalysis, [13], [38], [41].
(§2) Conidial cells were collected from 4 day old V8 agar plates (cultured at 18°C in the dark) using liquid AE and a cell spreader. Cell density was determined and cells re-suspended to a concentration of 5×10^5 cells ml^−1 in AE media. Sterile 96 wells microtiter plates with lids (Costar) were inoculated with 198 µl of this cell suspension (10^5 cells per well) and 2 µl of inhibitor (100× in DMSO). Final inhibitor concentrations were between 0.95 nM and 1 mM with uniform 4× dilution factor steps (11 inhibitor concentrations+1 DMSO control). Plates were incubated for 6 days at 19°C in the dark before cells were re-suspended and measured for growth (OD600 nm). IC50 values were determined by non linear curve fitting on the basis of measured OD values versus log inhibitor concentrations (GraphPad Prism 5.0 software).

[2] = tested on: M. graminicola strain Bos64 (SDHC_T79I); conditions: C_T79I, ratio IC50mutant/IC50WT
Protocol: as §1, §2

[3] = tested on: M. graminicola strain Cbx1 (SDHB_I269V); conditions: B_I269V, ratio IC50mutant/IC50WT
Protocol: as §1, §2

[4] = tested on: M. graminicola strain Cbx101 (SDHD_D129S); conditions: D_D129S, ratio IC50mutant/IC50WT
Protocol: as §1, §2

[5] = tested on: M. graminicola strain Cbx106 (SDHB_N225H); conditions: B_N225H, ratio IC50mutant/IC50WT
Protocol: as §1, §2

[6] = tested on: M. graminicola strain Cbx12 (SDHC_L85P); conditions: C_L85P, ratio IC50mutant/IC50WT
Protocol: as §1, §2

[7] = tested on: M. graminicola strain Cbx22 (SDHD_D129E); conditions: D_D129E, ratio IC50mutant/IC50WT
Protocol: as §1, §2

[8] = tested on: M. graminicola strain Cbx28 (SDHB_H267Y); conditions: B_H267Y, strain Cbx28; ratio IC50mutant/IC50WT
Protocol: as §1, §2

[9] = tested on: M. graminicola strain Cbx29 (SDHB_H267L); conditions: B_H267L, ratio IC50mutant/IC50WT
Protocol: as §1, §2

[10] = tested on: M. graminicola strain Cbx56 (SDHB_R265P); conditions: B_R265P, ratio IC50mutant/IC50WT
Protocol: as §1, §2

[11] = tested on: M. graminicola strain Cbx67 (SDHD_D129G); conditions: D_D129G, ratio IC50mutant/IC50WT
Protocol: as §1, §2

[12] = tested on: M. graminicola strain Cbx76 (SDHC_H145R); conditions: C_H145R, ratio IC50mutant/IC50WT
Protocol: as §1, §2

[13] = tested on: M. graminicola strain Cbx96 (SDHB_H267N); conditions: B_H267N, ratio IC50mutant/IC50WT
Protocol: as §1, §2

[14] = tested on: M. graminicola strain Flu1 (SDHC_S83G); conditions: C_S83G, ratio IC50mutant/IC50WT
Protocol: as §1, §2

[15] = tested on: M. graminicola strain Flu110 (SDHB_P220T); conditions: B_P220T, ratio IC50mutant/IC50WT
Protocol: as §1, §2

[16] = tested on: M. graminicola strain Flu21 (SDHC_A84I); conditions: C_A84I, ratio IC50mutant/IC50WT
Protocol: as §1, §2

[17] = tested on: M. graminicola strain Flu29 (SDHD_D129T); conditions: D_D129T, ratio IC50mutant/IC50WT
Protocol: as §1, §2

[18] = tested on: M. graminicola strain Flu33 (SDHB_N271K); conditions: B_N271K, ratio IC50mutant/IC50WT
Protocol: as §1, §2

[19] = tested on: M. graminicola strain Flu4 (SDHC_A84V); conditions: C_A84V, ratio IC50mutant/IC50WT
Protocol: as §1, §2

[20] = tested on: M. graminicola strain Flu41 (SDHB_S218F); conditions: B_S218F, ratio IC50mutant/IC50WT
Protocol: as §1, §2

[21] = tested on: M. graminicola strain Flu7 (SDHB_N225I); conditions: B_N225I, ratio IC50mutant/IC50WT
Protocol: as §1, §2

[22] = tested on: M. graminicola strain Flu75 (SDHB_P220L); conditions: B_P220L, ratio IC50mutant/IC50WT
Protocol: as §1, §2

[23] = tested on: M. graminicola strain Flu9 (SDHC_R87C); conditions: C_R87C, ratio IC50mutant/IC50WT
Protocol: as §1, §2

[24] = tested on: M. graminicola strain Izm1 (SDHC_H152R); conditions: C_H152R, ratio IC50mutant/IC50WT
Protocol: as §1, §2

[25] = tested on: M. graminicola strain Izm7 (SDHC_N86K); conditions: C_N86K, ratio IC50mutant/IC50WT
Protocol: as §1, §2

[26] = tested on: M. graminicola strain Ol50 (SDHC_V88D); conditions: C_V88D, ratio IC50mutant/IC50WT
Protocol: as §1, §2

CC(C)C1C2CCC1c1c(NC(=O)c3cn(C)nc3C(F)F)cccc12 (centres unmarked) [Isopyrazam]
Resistance Factors (RFs) in vivo [1]: 12.5
Resistance Factors (RFs) in vivo [2]: 15.8
Resistance Factors (RFs) in vivo [3]: 5.0
Resistance Factors (RFs) in vivo [4]: 10.8
Resistance Factors (RFs) in vivo [5]: 13.6
Resistance Factors (RFs) in vivo [6]: 10.0
Resistance Factors (RFs) in vivo [7]: 6.8
Resistance Factors (RFs) in vivo [8]: 16.1
Resistance Factors (RFs) in vivo [9]: 152.2
Resistance Factors (RFs) in vivo [10]: 7.6
Resistance Factors (RFs) in vivo [11]: 22.9
Resistance Factors (RFs) in vivo [12]: 27.6
Resistance Factors (RFs) in vivo [13]: 4.5
Resistance Factors (RFs) in vivo [14]: 61.2
Resistance Factors (RFs) in vivo [15]: 3.8
Resistance Factors (RFs) in vivo [16]: 8.8
Resistance Factors (RFs) in vivo [17]: 33 and 33.5
Resistance Factors (RFs) in vivo [18]: 5.7
Resistance Factors (RFs) in vivo [19]: 3.5
Resistance Factors (RFs) in vivo [20]: 15.0
Resistance Factors (RFs) in vivo [21]: 15.0
Resistance Factors (RFs) in vivo [22]: 4.8
Resistance Factors (RFs) in vivo [23]: 3.7
Resistance Factors (RFs) in vivo [24]: 133.9
Resistance Factors (RFs) in vivo [25]: 464.4
Resistance Factors (RFs) in vivo [26]: 36.5
